Values of other authors in patent US8865213B2, “Modified release pharmaceutical compositions” (USV Limited, priority 2009, dated 2014).

With COC(=O)C1=C(C)NC(C)=C(C(=O)OCC(C)C)C1c1ccccc1[N+](=O)[O-] (centres unmarked) [Nisoldipine, 3,5-pyridinedicarboxylic acid, 1,4-dihydro-2,6-dimethyl-4-(2-nitrophenyl)-, methyl 2-methyl-propyl ester] as the compound, how does the Solubility in ethanol (ethanol) read?
Its Solubility in ethanol is “soluble”.

What about the Solubility in water (water) of the same compound?
The Solubility in water was “practically insoluble”.
